Laboratory results published in the NIST ThermoML archive (doi:10.1016/j.jct.2015.08.014).
Numbers after ± are expanded uncertainties.

Test: xn = mol fraction of the nth substance listed
Conditions: 273.15 K, 100 kPa, Liquid; for electrical conductivity: Alternating current cell with electrodes; for viscosity: Capillary tube (Ostwald / Ubbelohde) method

CCCC[N+]1(C)CCCC1.N#CN=C=[N-] [1-butyl-1-methylpyrrolidinium dicyanamide] + O=C1CCCO1
electrical conductivity (x1 = 0.0463): 0.977 ± 0.016 S/m
electrical conductivity (x1 = 0.0987): 1.43 ± 0.017 S/m
electrical conductivity (x1 = 0.1449): 1.56 ± 0.016 S/m
electrical conductivity (x1 = 0.1859): 1.634 ± 0.016 S/m
electrical conductivity (x1 = 0.2493): 1.517 ± 0.015 S/m
electrical conductivity (x1 = 0.3029): 1.42 ± 0.015 S/m
electrical conductivity (x1 = 0.3845): 1.25 ± 0.013 S/m
electrical conductivity (x1 = 0.4985): 1.03 ± 0.011 S/m
electrical conductivity (x1 = 0.6954): 0.742 ± 0.008 S/m
electrical conductivity (x1 = 0.9013): 0.562 ± 0.006 S/m
electrical conductivity (x1 = 1): 0.523 ± 0.005 S/m
viscosity (x1 = 0.0987): 4.69 ± 0.11 mPa·s
viscosity (x1 = 0.1859): 7.2 ± 0.16 mPa·s
viscosity (x1 = 0.3029): 12.03 ± 0.27 mPa·s
viscosity (x1 = 0.4985): 24.9 ± 0.56 mPa·s
viscosity (x1 = 0.6954): 45.65 ± 1 mPa·s
viscosity (x1 = 0.9013): 76.07 ± 1.8 mPa·s
viscosity (x1 = 1): 93.95 ± 2.3 mPa·s
electrical conductivity (Frequency=0.0005 MHz, x1 = 0.0463): 0.97 ± 0.016 S/m
electrical conductivity (Frequency=0.0005 MHz, x1 = 0.0987): 1.41 ± 0.017 S/m
electrical conductivity (Frequency=0.0005 MHz, x1 = 0.1449): 1.56 ± 0.016 S/m
electrical conductivity (Frequency=0.0005 MHz, x1 = 0.1859): 1.619 ± 0.016 S/m
electrical conductivity (Frequency=0.0005 MHz, x1 = 0.2493): 1.513 ± 0.015 S/m
electrical conductivity (Frequency=0.0005 MHz, x1 = 0.3029): 1.42 ± 0.015 S/m
electrical conductivity (Frequency=0.0005 MHz, x1 = 0.3845): 1.25 ± 0.013 S/m
electrical conductivity (Frequency=0.0005 MHz, x1 = 0.4985): 1.03 ± 0.011 S/m
electrical conductivity (Frequency=0.0005 MHz, x1 = 0.6954): 0.741 ± 0.008 S/m
electrical conductivity (Frequency=0.0005 MHz, x1 = 0.9013): 0.561 ± 0.006 S/m
electrical conductivity (Frequency=0.0005 MHz, x1 = 1): 0.522 ± 0.005 S/m
electrical conductivity (Frequency=0.001 MHz, x1 = 0.0463): 0.973 ± 0.016 S/m
electrical conductivity (Frequency=0.001 MHz, x1 = 0.0987): 1.42 ± 0.017 S/m
electrical conductivity (Frequency=0.001 MHz, x1 = 0.1449): 1.56 ± 0.016 S/m
electrical conductivity (Frequency=0.001 MHz, x1 = 0.1859): 1.625 ± 0.016 S/m
electrical conductivity (Frequency=0.001 MHz, x1 = 0.2493): 1.515 ± 0.015 S/m
electrical conductivity (Frequency=0.001 MHz, x1 = 0.3029): 1.42 ± 0.015 S/m
electrical conductivity (Frequency=0.001 MHz, x1 = 0.3845): 1.25 ± 0.013 S/m
electrical conductivity (Frequency=0.001 MHz, x1 = 0.4985): 1.03 ± 0.011 S/m
electrical conductivity (Frequency=0.001 MHz, x1 = 0.6954): 0.741 ± 0.008 S/m
electrical conductivity (Frequency=0.001 MHz, x1 = 0.9013): 0.561 ± 0.006 S/m
electrical conductivity (Frequency=0.001 MHz, x1 = 1): 0.522 ± 0.005 S/m
electrical conductivity (Frequency=0.0015 MHz, x1 = 0.0463): 0.975 ± 0.016 S/m
electrical conductivity (Frequency=0.0015 MHz, x1 = 0.0987): 1.42 ± 0.017 S/m
electrical conductivity (Frequency=0.0015 MHz, x1 = 0.1449): 1.56 ± 0.016 S/m
electrical conductivity (Frequency=0.0015 MHz, x1 = 0.1859): 1.627 ± 0.016 S/m
electrical conductivity (Frequency=0.0015 MHz, x1 = 0.2493): 1.515 ± 0.015 S/m
electrical conductivity (Frequency=0.0015 MHz, x1 = 0.3029): 1.42 ± 0.015 S/m
electrical conductivity (Frequency=0.0015 MHz, x1 = 0.3845): 1.25 ± 0.013 S/m
electrical conductivity (Frequency=0.0015 MHz, x1 = 0.4985): 1.03 ± 0.011 S/m
electrical conductivity (Frequency=0.0015 MHz, x1 = 0.6954): 0.741 ± 0.008 S/m
electrical conductivity (Frequency=0.0015 MHz, x1 = 0.9013): 0.562 ± 0.006 S/m
electrical conductivity (Frequency=0.0015 MHz, x1 = 1): 0.522 ± 0.005 S/m
electrical conductivity (Frequency=0.002 MHz, x1 = 0.0463): 0.975 ± 0.016 S/m
electrical conductivity (Frequency=0.002 MHz, x1 = 0.0987): 1.42 ± 0.017 S/m
electrical conductivity (Frequency=0.002 MHz, x1 = 0.1449): 1.56 ± 0.016 S/m
electrical conductivity (Frequency=0.002 MHz, x1 = 0.1859): 1.629 ± 0.016 S/m
electrical conductivity (Frequency=0.002 MHz, x1 = 0.2493): 1.516 ± 0.015 S/m
electrical conductivity (Frequency=0.002 MHz, x1 = 0.3029): 1.42 ± 0.015 S/m
electrical conductivity (Frequency=0.002 MHz, x1 = 0.3845): 1.25 ± 0.013 S/m
electrical conductivity (Frequency=0.002 MHz, x1 = 0.4985): 1.03 ± 0.011 S/m
electrical conductivity (Frequency=0.002 MHz, x1 = 0.6954): 0.742 ± 0.008 S/m
electrical conductivity (Frequency=0.002 MHz, x1 = 0.9013): 0.562 ± 0.006 S/m
electrical conductivity (Frequency=0.002 MHz, x1 = 1): 0.522 ± 0.005 S/m
electrical conductivity (Frequency=0.0025 MHz, x1 = 0.0463): 0.976 ± 0.016 S/m
electrical conductivity (Frequency=0.0025 MHz, x1 = 0.0987): 1.42 ± 0.017 S/m
electrical conductivity (Frequency=0.0025 MHz, x1 = 0.1449): 1.56 ± 0.016 S/m
electrical conductivity (Frequency=0.0025 MHz, x1 = 0.1859): 1.63 ± 0.016 S/m
electrical conductivity (Frequency=0.0025 MHz, x1 = 0.2493): 1.516 ± 0.015 S/m
electrical conductivity (Frequency=0.0025 MHz, x1 = 0.3029): 1.42 ± 0.015 S/m
electrical conductivity (Frequency=0.0025 MHz, x1 = 0.3845): 1.25 ± 0.013 S/m
electrical conductivity (Frequency=0.0025 MHz, x1 = 0.4985): 1.03 ± 0.011 S/m
electrical conductivity (Frequency=0.0025 MHz, x1 = 0.6954): 0.742 ± 0.008 S/m
electrical conductivity (Frequency=0.0025 MHz, x1 = 0.9013): 0.562 ± 0.006 S/m
electrical conductivity (Frequency=0.0025 MHz, x1 = 1): 0.522 ± 0.005 S/m
electrical conductivity (Frequency=0.003 MHz, x1 = 0.0463): 0.976 ± 0.016 S/m
electrical conductivity (Frequency=0.003 MHz, x1 = 0.0987): 1.42 ± 0.017 S/m
electrical conductivity (Frequency=0.003 MHz, x1 = 0.1449): 1.56 ± 0.016 S/m
electrical conductivity (Frequency=0.003 MHz, x1 = 0.1859): 1.631 ± 0.016 S/m
electrical conductivity (Frequency=0.003 MHz, x1 = 0.2493): 1.516 ± 0.015 S/m
electrical conductivity (Frequency=0.003 MHz, x1 = 0.3029): 1.42 ± 0.015 S/m
electrical conductivity (Frequency=0.003 MHz, x1 = 0.3845): 1.25 ± 0.013 S/m
electrical conductivity (Frequency=0.003 MHz, x1 = 0.4985): 1.03 ± 0.011 S/m
electrical conductivity (Frequency=0.003 MHz, x1 = 0.6954): 0.742 ± 0.008 S/m
electrical conductivity (Frequency=0.003 MHz, x1 = 0.9013): 0.562 ± 0.006 S/m
electrical conductivity (Frequency=0.003 MHz, x1 = 1): 0.522 ± 0.005 S/m
electrical conductivity (Frequency=0.00347222 MHz, x1 = 0.0463): 0.977 ± 0.016 S/m
electrical conductivity (Frequency=0.00347222 MHz, x1 = 0.0987): 1.42 ± 0.017 S/m
electrical conductivity (Frequency=0.00347222 MHz, x1 = 0.1449): 1.56 ± 0.016 S/m
electrical conductivity (Frequency=0.00347222 MHz, x1 = 0.1859): 1.632 ± 0.016 S/m
electrical conductivity (Frequency=0.00347222 MHz, x1 = 0.2493): 1.516 ± 0.015 S/m
electrical conductivity (Frequency=0.00347222 MHz, x1 = 0.3029): 1.42 ± 0.015 S/m
electrical conductivity (Frequency=0.00347222 MHz, x1 = 0.3845): 1.25 ± 0.013 S/m
electrical conductivity (Frequency=0.00347222 MHz, x1 = 0.4985): 1.03 ± 0.011 S/m
electrical conductivity (Frequency=0.00347222 MHz, x1 = 0.6954): 0.742 ± 0.008 S/m
electrical conductivity (Frequency=0.00347222 MHz, x1 = 0.9013): 0.562 ± 0.006 S/m
electrical conductivity (Frequency=0.00347222 MHz, x1 = 1): 0.523 ± 0.005 S/m
electrical conductivity (Frequency=0.004 MHz, x1 = 0.0463): 0.977 ± 0.016 S/m
electrical conductivity (Frequency=0.004 MHz, x1 = 0.0987): 1.42 ± 0.017 S/m
electrical conductivity (Frequency=0.004 MHz, x1 = 0.1449): 1.56 ± 0.016 S/m
electrical conductivity (Frequency=0.004 MHz, x1 = 0.1859): 1.632 ± 0.016 S/m
electrical conductivity (Frequency=0.004 MHz, x1 = 0.2493): 1.516 ± 0.015 S/m
electrical conductivity (Frequency=0.004 MHz, x1 = 0.3029): 1.42 ± 0.015 S/m
electrical conductivity (Frequency=0.004 MHz, x1 = 0.3845): 1.25 ± 0.013 S/m
electrical conductivity (Frequency=0.004 MHz, x1 = 0.4985): 1.03 ± 0.011 S/m
electrical conductivity (Frequency=0.004 MHz, x1 = 0.6954): 0.742 ± 0.008 S/m
electrical conductivity (Frequency=0.004 MHz, x1 = 0.9013): 0.562 ± 0.006 S/m
electrical conductivity (Frequency=0.004 MHz, x1 = 1): 0.523 ± 0.005 S/m
electrical conductivity (Frequency=0.00446429 MHz, x1 = 0.0463): 0.977 ± 0.016 S/m
